Consider one compound from ChEMBL document CHEMBL1201862, “PubChem BioAssay data set” (2004).

This experiment deals with Multidrug resistance protein CDR2 (Candida albicans (strain SC5314 / ATCC MYA-2876) (Yeast), UniProt P78595). The experiment can be described thus: CaCDR2 efflux pump inhibitors in yeast, dose response, S. cerevisiae AD1-8u, singleplex, Cherry Pick1 hits (AID 588604). Format: functional.

Molecules are shown by their SMILES. Active and inactive are the calls of the source. No rule for the calls is given here.

Chain of Multidrug resistance protein CDR2 (P78595 whole entry): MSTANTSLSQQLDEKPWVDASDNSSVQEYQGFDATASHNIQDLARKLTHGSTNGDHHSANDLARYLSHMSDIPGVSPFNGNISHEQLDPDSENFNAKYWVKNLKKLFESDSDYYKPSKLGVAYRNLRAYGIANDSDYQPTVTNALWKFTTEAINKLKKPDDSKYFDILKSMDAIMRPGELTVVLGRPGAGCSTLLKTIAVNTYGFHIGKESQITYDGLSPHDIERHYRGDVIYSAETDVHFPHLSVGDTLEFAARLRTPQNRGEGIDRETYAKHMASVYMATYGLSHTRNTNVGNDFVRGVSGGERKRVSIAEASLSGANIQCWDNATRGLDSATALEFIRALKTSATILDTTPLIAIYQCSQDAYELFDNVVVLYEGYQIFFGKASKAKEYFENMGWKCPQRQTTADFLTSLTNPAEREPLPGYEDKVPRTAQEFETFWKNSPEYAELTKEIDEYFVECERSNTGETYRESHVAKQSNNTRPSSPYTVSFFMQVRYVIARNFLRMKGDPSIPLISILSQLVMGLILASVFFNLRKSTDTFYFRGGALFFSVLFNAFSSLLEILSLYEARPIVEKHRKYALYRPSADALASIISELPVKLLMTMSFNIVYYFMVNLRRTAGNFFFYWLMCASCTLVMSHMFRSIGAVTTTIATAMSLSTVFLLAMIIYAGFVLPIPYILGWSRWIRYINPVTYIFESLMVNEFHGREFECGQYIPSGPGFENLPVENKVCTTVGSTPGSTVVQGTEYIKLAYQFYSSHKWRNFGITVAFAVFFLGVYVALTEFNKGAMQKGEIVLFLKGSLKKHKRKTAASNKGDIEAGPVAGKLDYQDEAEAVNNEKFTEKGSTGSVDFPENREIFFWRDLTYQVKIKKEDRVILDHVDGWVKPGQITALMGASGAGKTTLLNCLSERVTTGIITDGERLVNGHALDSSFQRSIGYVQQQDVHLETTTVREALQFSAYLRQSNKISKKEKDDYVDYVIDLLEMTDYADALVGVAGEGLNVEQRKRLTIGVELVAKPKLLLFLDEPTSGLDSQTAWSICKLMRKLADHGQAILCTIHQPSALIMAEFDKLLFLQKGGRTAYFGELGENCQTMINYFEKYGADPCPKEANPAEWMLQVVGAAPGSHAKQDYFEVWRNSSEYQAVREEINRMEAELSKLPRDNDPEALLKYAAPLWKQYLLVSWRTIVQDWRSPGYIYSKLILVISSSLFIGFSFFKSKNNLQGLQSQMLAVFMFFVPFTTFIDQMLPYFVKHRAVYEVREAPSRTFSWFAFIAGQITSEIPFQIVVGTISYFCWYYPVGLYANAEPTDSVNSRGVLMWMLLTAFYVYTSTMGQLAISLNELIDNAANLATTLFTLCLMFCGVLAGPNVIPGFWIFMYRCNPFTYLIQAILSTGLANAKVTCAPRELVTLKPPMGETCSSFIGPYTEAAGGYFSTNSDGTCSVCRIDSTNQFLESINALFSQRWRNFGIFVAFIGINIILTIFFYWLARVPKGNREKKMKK

Turning to `O=C(N=C(NC(=O)c1ccccc1)Nc1nc2ccccc2o1)c1ccccc1`, the EC50 was 1530 nM (active).
